From paper PMC8962522, “Direct interaction of TrkA/CD44v3 is essential for NGF-promoted aggressiveness of breast cancer cells” (Journal of Experimental & Clinical Cancer Research : CR, 2022)

Assays:
[1] = test system: TrkA/CD44v3 complex in BT-474 cells; test: PLA TrkA/CD44v3 complex formation in BT-474 cells; format: cell-based; details: luminal B; NGF 100 ng/ml
Experimental: Cells (10,000 cells per well) were grown on acid-washed eight-well glass slides (Thermo Scientific) in the appropriate medium supplemented with 10% FBS for 24 h. After NGF treatment, paraformaldehyde (PAF)-fixed cells were incubated with 4% bovine serum albumin (BSA) or 5% FBS (for 1 h at 20 °C), followed by overnight incubation with primary antibodies (rabbit anti-TrkA or rabbit anti-IgG + mouse anti-pan-CD44; mouse anti-CD44v3; mouse anti-CD44v6; mouse anti-IgG2a; mouse anti-IgG2b; or mouse anti-IgG1). PLA was performed following the manufacturer’s instructions in the assay kit (Duolink PLA; Sigma–Aldrich). To obtain the correct representation of the PLA signal for each condition, 30 fields per condition were observed using a fluorescence microscope (Eclipse TiU; Nikon, Japan). The PLA signals (red dots) were automatically quantified using ImageJ software (with an in-house-developed plug-in). […]
Fig. 7 The TrkA/CD44v3 complex is formed in PR-negative breast cancer cells and tumors. TrkA/CD44v3 complex formation was measured in SUM159-PT (triple negative—i.e., ERα-, PR-, and Her2-) cells (A), T47-D (luminal A—i.e., ERα+, PR+, and Her2-) cells (B), BT-474 (luminal B—ERα+, PR+, and Her2+) cells (C), HCC-1954 (Her2-like—ERα-, PR-, and Her2+) cells (D), and 150 tumor patient samples obtained from US BioMax (HBre-Duc150Sur01) (E, F) using the proximity ligation assay (PLA). […]

[2] = test system: CD44v6 in MDA-MB-231 cells; test: Flow cytometry, plasma membrane CD44v6; format: cell-based; details: MDA-MB-231, flow cytometry
Source text: The CD44v3- and CD44v6-containing isoforms expressing respectively exon 8 and 11(Fig. 1A) can interact with growth factor receptors. Using COS-7 cells with low CD44 and TrkA expression (Supplementary Fig. 1A-D), we differentially expressed TrkA and CD44s or a CD44 variant, either CD44v3 or CD44v6 (Fig. 1B, supplementary Fig. 2). […] Additionally, we evaluated the expression of TrkA and CD44v3 at the membrane level or in cells by immunofluorescence in MDA-MB-231 cells.
Supplementary file 13046_2022_2314_MOESM3_ESM.pdf: Additional file 3: Supplementary Figure 1. Validation of the ectopic expression of CD44 and/or TrkA in COS-7 cells. The expression of all CD44 isoforms (A), CD44 variant 3 (B), CD44 variant 6 (C) and TrkA ([…]; D) was evaluated by RT–qPCR (normalized using PUM-1). No expression of CD44, CD44 variants [3 or 6] or TrkA was detected in COS-7 cells (A-D) compared with that in cells transfected with the expression plasmid carrying each protein. […] Quantification of the PLA results was performed using ImageJ software (30 randomly chosen fields per condition of three different experiments). […] CD44v3 and CD44v6 levels at the plasma membrane were assessed by flow cytometry (A-D). The plasma membrane and total TrkA and CD44v3 levels were also quantified by confocal microscopy (E-H). […] The CD44v3/NGF interaction was evaluated using microscale thermophoresis (MST). […]

Substance: NGF: recombinant human β-NGF (Alomone Labs, Israel)
- effect on TrkA/CD44v3 complex formation (PLA) in BT-474 cells [1]: NGF induction was insufficient to modulate TrkA/CD44v3 complex formation in BT-474 (luminal B) cells
- increase of plasma membrane CD44v6 ([2]; CD44v6-APC, histogram with No stim., NGF (5 min), NGF (30 min)): 6%
- plasma membrane level of CD44v6 (in words) ([2]; NGF stimulation): increased the plasma membrane level of CD44v3 but not CD44v6
